Reference: patent US20040023884A1, “Biologically active peptides from functional domains of bactericidal/permeability-increasing protein and uses thereof” (priority 1993, published 2004)
Where two headings read alike, the source gives them in different places. Square brackets hold non-standard residues; d marks the D form. Ends that are not written are not given here. 1Nal = N[C@@H](Cc1cccc2ccccc12)C(=O)O; d1Nal = N[C@H](Cc1cccc2ccccc12)C(=O)O; Pal = not defined here

Legend:
[1] = tested on: rough mutant E. coli J5 bacteria; experiment: Radial diffusion bactericidal assay, E. coli J5; type: cell-based; settings: radial diffusion; for bactericidal activity (in words): E. coli J5; for pmol added to well to achieve a 30 mm^2 bactericidal zone, E. coli J5: PROBIT analysis, E. coli J5 (rough)
Description: BPI proteolytic fragments produced according to Example 1 were screened for bactericidal effects using rough mutant E. coli J5 bacteria in a radial diffusion assay. Specifically, an overnight culture of E. coli J5 was diluted 1:50 into fresh tryptic soy broth and incubated for 3 hours at 37° C. to attain log phase growth of the culture. Bacteria were then pelleted at 3,000 rpm for 5 minutes in a Sorvall RT6000B centrifuge (Sorvall Instruments, Newton, Conn.). 5 mL of 10 mM sodium phosphate buffer (pH 7.4) was added and the preparation was re-pelleted. […] The bacteria were diluted to 4×10^6 CFU/mL in 10 mL of molten underlayer agarose (at approximately 45° C.) and inverted repeatedly to mix in 15 mL polypropylene tubes conventionally used for this purpose.
The entire contents of such tubes were then poured into a level square petri dish and distributed evenly by rocking the dish side-to-side. […] A series of wells were then punched into the hardened agarose using a sterile 3 mm punch attached to a vacuum apparatus. The punch was sterilized with 100% alcohol and allowed to air dry prior to use to avoid contaminating the bacterial culture.
5 or 10 μL of each of the BPI fragments were carefully pipetted into each well. As a negative control, dilution buffer (pH 8.3) was added to a separate well, and rBPI23 at concentrations of 5 μg/mL and 1 μg/mL were also added as positive controls. Each plate was incubated at 37° C. for 3 hours, and then 10 mL of molten overlayer agarose (at approximately 45° C.) was added into the level petri dish, allowed to harden and incubated overnight at 37° C. […] The bacterial zones were measured with a micrometer.

[2] = 3H-heparin binding assay (affinity and capacity); settings: for cpm ^3H-Heparin bound: 100 picomoles of each fragment per well, saturating 3H-heparin 20 μg/mL, mean of duplicate wells ± range; for Heparin Capacity: heparin bound at saturation; for heparin binding capacity: direct heparin binding assay
Description: Briefly, each fragment was added to wells of a 96-well microtiter plate having a polyvinylidene difluoride membrane (Immunobilon-P, Millipore, Bedford, Mass.) disposed at the bottom of the wells. […] Positive control wells contained varying amounts of rBPI23. […] DuPont-NEN, Wilmington, Del.) were made in the blocking buffer and incubated in the BPI peptide-containing wells for one hour at 4° C. The unbound heparin was aspirated and the wells were washed three times with blocking buffer, dried and removed for quantitation in a liquid scintillation counter (Model 1217, LKB, Gaithersburg, Md.). Although BSA in the blocking buffer did show a low affinity and capacity to bind heparin, this was considered physiologically irrelevant and the background was routinely subtracted from the test compound signal.

[3] = tested on: E. coli 0111:B4 (smooth) bacteria; experiment: Radial diffusion bactericidal assay, E. coli 0111:B4; type: cell-based; settings: radial diffusion; PROBIT analysis; E. coli O111:B4 (smooth)
Staphylococcus aureus = experiment: Radial diffusion bactericidal assay, Staphylococcus aureus; type: cell-based; settings: radial diffusion; PROBIT analysis; S. aureus
[4] = read-out: Kd of heparin binding

In the case of “85-99: 15-mer pin-synthesized peptide corresponding to amino acids 85-99 of BPI, with cyclo(lysylprolyl) moiety on the carboxyl-terminus (IKISGKWKAQKRFLK-{cyclo(lysylprolyl)}; UniProt P17213 116-130, looked up, fragment)”, the “bactericidal activity (in words)” value [1] is reported as “found to have bactericidal activity”.
For “A2: Asp-N fragment of rBPI23, residues 15-38 (DYASQQGTAALQKELKRIKIPDYS; Asp-N fragment; UniProt P17213 46-69, looked up, fragment)”, the “cpm ^3H-Heparin bound” value [2] was 3,042 ± 162 cpm.
For “A3: Asp-N fragment of rBPI23, residues 39-56 (DSFKIKHLGKGHYSFYSM; UniProt P17213 70-87, looked up, fragment)”, the “cpm ^3H-Heparin bound” value [2] was 8,664 ± 128 cpm.
With “Aβ-(1-naphthyl)Aβ-(1-naphthyl)RFLKF ([1Nal][1Nal]RFLKF) [BPI.140]” the “pmol added to well to achieve a 30 mm^2 bactericidal zone, E. coli O111:B4” value (“pmol added to well … E. coli O111:B4” for short) [3] was 605.34 pmol, the “pmol added to well to achieve a 30 mm^2 bactericidal zone, E. coli J5” value (from here on “pmol added to well … E. coli J5”) [1] was 84.76 pmol and the “pmol added to well to achieve a 30 mm^2 bactericidal zone, S. aureus” value (“pmol added to well … S. aureus” for short) (Staphylococcus aureus) was 9,977.71 pmol.
In the case of “BPI.65(Ox) (CIKISGKWKAQKRFLKC; not fully specified (bridges); also: oxidized)”, the “pmol added to well … E. coli O111:B4” value [3] is reported as “b (no detectable activity up to 5 μg/well)”, the “pmol added to well … E. coli J5” value [1] is reported as 849.79 pmol and the “pmol added to well … S. aureus” value (Staphylococcus aureus) is reported as 11,960.00 pmol.
For “C2: CNBr fragment of rBPI23, residues 57-70 (DIREFQLPSSQISM; CNBr fragment; UniProt P17213 88-101, looked up, fragment)”, the “cpm ^3H-Heparin bound” value [2] was 6,262 ± 182 cpm.
In the case of “C3: CNBr fragment of rBPI23, residues 71-100 (VPNVGLKFSISNANIKISGKWKAQKRFLKM; CNBr fragment; UniProt P17213 102-131, looked up, fragment)”, the “cpm ^3H-Heparin bound” value [2] is reported as 81,655 ± 3,163 cpm.
In the case of “C4: CNBr fragment of rBPI23, residues 101-111 (SGNFDLSIEGM; CNBr fragment; UniProt P17213 132-142, looked up, fragment)”, the “cpm ^3H-Heparin bound” value [2] is reported as 4,686 ± 4 cpm.
With “C6: CNBr fragment of rBPI23, residues 171-196 (NSQVCEKVTNSVSSELQPYFQTLPVM; CNBr fragment; UniProt P17213 202-227, looked up, fragment)” the “cpm ^3H-Heparin bound” value [2] was 26,204 ± 844 cpm.
For CIKISGKWKAQKRFLKC [BPI.65 (ox.)], the “Heparin Capacity” value [2] was 190.6 ng and the Kd ([2]; read-out: Heparin Affinity) was 160 nM.
For CIKISGKWKAQKRFLKC [BPI.65 (red.)], the “bactericidal activity (in words)” value [1] was “highly bactericidal”, the “heparin binding capacity (in words)” value [2] was “extremely high heparin capacity” and the “Heparin Capacity” value [2] was 279.6 ng. It also gave a Kd ([2]; read-out: Heparin Affinity) of 216 nM.
With CIKISGKWKAQKRPLC [BPI.57] the “pmol added to well … E. coli O111:B4” value [3] was “b (no detectable activity up to 5 μg/well)”, the “pmol added to well … E. coli J5” value [1] was 514.03 pmol and the “pmol added to well … S. aureus” value (Staphylococcus aureus) was “b (no detectable activity up to 5 μg/well)”.
For “Cecropin A (KWKLFKKIEKVGQNIRDGIIKAGPAVAVVGQATQIAK; ends and bridges not checked; UniProt P01507 27-63, looked up) [antibacterial peptide of lepidopteran insects (Sigma), reference compound]”, the heparin binding capacity [2] was 242 ng heparin/2 μg peptide, the “Heparin Capacity” value [2] was 242.0 ng and the Kd ([2]; read-out: Heparin Affinity) was 395 nM. It also gave a Kd [2, 4] of 395 nM.
For GTAALQKELKRIKIP [BPI.54], the “pmol added to well … E. coli O111:B4” value [3] was “b (no detectable activity up to 5 μg/well)”, the “bactericidal activity (in words)” value [1] was “little or no bactericidal activity” and the “pmol added to well … E. coli J5” value [1] was “b (no detectable activity up to 5 μg/well)”. For the same substance, the “heparin binding capacity (in words)” value [2] was “low heparin binding capacity”, the “Heparin Capacity” value [2] was 64.3 ng and the Kd ([2]; read-out: Heparin Affinity) was 237 nM.
In the case of “IKISGKAβ-(1-naphthyl)KAAβ-(1-naphthyl)Aβ-(1-naphthyl)RFLK (IKISGK[1Nal]KA[1Nal][1Nal]RFLK) [BPI.122]”, the “pmol added to well … E. coli O111:B4” value [3] is reported as 2,123.57 pmol, the “pmol added to well … E. coli J5” value [1] is reported as 179.89 pmol and the “pmol added to well … S. aureus” value (Staphylococcus aureus) is reported as 2,631,667.24 pmol.
For “IKISGKAβ-(1-naphthyl)KAQAβ-(1-naphthyl)RFLK (IKISGK[1Nal]KAQ[1Nal]RFLK) [BPI.112]”, the “pmol added to well … E. coli O111:B4” value [3] was “b (no detectable activity up to 5 μg/well)”, the “pmol added to well … E. coli J5” value [1] was 1,485.92 pmol and the “pmol added to well … S. aureus” value (Staphylococcus aureus) was “b (no detectable activity up to 5 μg/well)”.
In the case of IKISGKWKAAARFLK [BPI.45], the “pmol added to well … E. coli O111:B4” value [3] is reported as 4,849.00 pmol, the “pmol added to well … E. coli J5” value [1] is reported as 1,301.80 pmol and the “Heparin Capacity” value [2] is reported as 160.7 ng. It also gave a Kd ([2]; read-out: Heparin Affinity) of 153 nM.
With “IKISGKWKAAβ-(1-naphthyl)Aβ-(1-naphthyl)RFLK (IKISGKWKA[1Nal][1Nal]RFLK) [BPI.121]” the “pmol added to well … E. coli O111:B4” value [3] was 1,856.40 pmol, the “pmol added to well … E. coli J5” value [1] was 154.35 pmol and the “pmol added to well … S. aureus” value (Staphylococcus aureus) was 941,388.07 pmol.
For IKISGKWKAQERFLK [BPI.136], the “pmol added to well … E. coli O111:B4” value [3] was “b (no detectable activity up to 5 μg/well)”, the “pmol added to well … E. coli J5” value [1] was 18,846.44 pmol and the “pmol added to well … S. aureus” value (Staphylococcus aureus) was “b (no detectable activity up to 5 μg/well)”.
With IKISGKWKAQKRWLK [BPI.141] the “pmol added to well … E. coli O111:B4” value [3] was “b (no detectable activity up to 5 μg/well)”, the “pmol added to well … E. coli J5” value [1] was 2,809.51 pmol and the “pmol added to well … S. aureus” value (Staphylococcus aureus) was “b (no detectable activity up to 5 μg/well)”.
For “IKISGKWKAWKRAβ-(1-naphthyl)LKK (IKISGKWKAWKR[1Nal]LKK) [BPI.105]”, the “pmol added to well … E. coli O111:B4” value [3] was 206.98 pmol, the “pmol added to well … E. coli J5” value [1] was 65.35 pmol and the “pmol added to well … S. aureus” value (Staphylococcus aureus) was 6,260.97 pmol.
In the case of “KSKVGA2-β-(1-naphthyl)LIQLFHKK (KSKVG[1Nal]LIQLFHKK; not fully specified; printed as KSKVGA2-β-(1-naphthyl)LIQLFHKK) [BPI.130]”, the “pmol added to well … E. coli O111:B4” value [3] is reported as 4,377.92 pmol, the “pmol added to well … E. coli J5” value [1] is reported as 325.75 pmol and the “pmol added to well … S. aureus” value (Staphylococcus aureus) is reported as “b (no detectable activity up to 5 μg/well)”.
With “KSKVGA(pyridyl)LIQLFHKK (KSKVG[Pal]LIQLFHKK; reading uncertain; also: printed as KSKVGA(pyridyl)LIQLFHKK) [BPI.132]” the “pmol added to well … E. coli O111:B4” value [3] was “b (no detectable activity up to 5 μg/well)”, the “pmol added to well … E. coli J5” value [1] was 4,505.79 pmol and the “pmol added to well … S. aureus” value (Staphylococcus aureus) was “b (no detectable activity up to 5 μg/well)”.
With “KSKVGAD-2-β-(1-naphthyl)LIQLFHKK (KSKVG[d1Nal]LIQLFHKK; not fully specified) [BPI.131]” the “pmol added to well … E. coli O111:B4” value [3] was “b (no detectable activity up to 5 μg/well)”, the “pmol added to well … E. coli J5” value [1] was 1,438.21 pmol and the “pmol added to well … S. aureus” value (Staphylococcus aureus) was “b (no detectable activity up to 5 μg/well)”.
For KSKVWLIQLFHKK [BPI.11], the “pmol added to well … E. coli O111:B4” value [3] was “b (no detectable activity up to 5 μg/well)”, the “pmol added to well … E. coli J5” value [1] was 638.30 pmol and the “Heparin Capacity” value [2] was 290.5 ng. It also gave a Kd ([2]; read-out: Heparin Affinity) of 744 nM.
For “Limulus anti-LPS factor [LALF, reference compound]”, the heparin binding capacity [2] was 195.3 ng heparin/2 μg peptide, the “Heparin Capacity” value [2] was 195.3 ng and the Kd ([2]; read-out: Heparin Affinity) was 1290 nM. It also gave a Kd [2, 4] of 1290 nM.
With “Polymyxin B peptide [PMB Peptide, reference compound]” the heparin binding capacity [2] was 58.0 ng heparin/2 μg peptide, the “Heparin Capacity” value [2] was 58.01 ng and the Kd ([2]; read-out: Heparin Affinity) was 309 nM.
In the case of SVHVHISKSKVGWLIQLFHKKIESALRNK [BPI.12], the “pmol added to well … E. coli O111:B4” value [3] is reported as “b (no detectable activity up to 5 μg/well)”, the “pmol added to well … E. coli J5” value [1] is reported as 524.80 pmol and the “Heparin Capacity” value [2] is reported as 231.5 ng. The Kd ([2]; read-out: Heparin Affinity) was 285 nM.
For magainin II amide [reference compound], the heparin binding capacity [2] was 437.7 ng heparin/2 μg peptide, the “Heparin Capacity” value [2] was 453.7 ng and the Kd ([2]; read-out: Heparin Affinity) was 3170 nM. The Kd [2, 4] was 3170 nM.
